# Assay results taken from PubChem BioAssay (NCI).
#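 In this assay, cells in 96-well plates receive the compound at five concentrations for 48 hours. Endpoints are linearly interpolated between the surrounding concentrations. GI50 = concentration required for 50% inhibition of growth. TGI is the concentration that stops growth completely.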
# Key:
# Test in all cases: inhibition of tumour cell growth, NCI panel, 48 h
# DMS 273 small cell lung = test system: DMS 273 small cell lung
# KM12 colon = test system: KM12 colon
# OVCAR-5 ovarian = test system: OVCAR-5 ovarian
# SR leukemia = test system: SR leukemia
# U251 CNS = test system: U251 CNS
# RXF 393 renal = test system: RXF 393 renal
# OVCAR-4 ovarian = test system: OVCAR-4 ovarian
# SF-295 CNS = test system: SF-295 CNS
# SK-MEL-28 melanoma = test system: SK-MEL-28 melanoma
# M14 melanoma = test system: M14 melanoma
# SNB-75 CNS = test system: SNB-75 CNS
# LXFL 529 NSCLC = test system: LXFL 529 NSCLC
# MOLT-4 leukemia = test system: MOLT-4 leukemia
# HCT-116 colon = test system: HCT-116 colon
# K-562 leukemia = test system: K-562 leukemia
# SF-539 CNS = test system: SF-539 CNS
# KM20L2 colon = test system: KM20L2 colon
# LOX IMVI melanoma = test system: LOX IMVI melanoma
# EKVX NSCLC = test system: EKVX NSCLC
# NCI-H226 lung = test system: NCI-H226 lung
# SN12C renal = test system: SN12C renal
# CCRF-CEM leukemia = test system: CCRF-CEM leukemia
# ACHN renal = test system: ACHN renal
# NCI-H522 lung = test system: NCI-H522 lung
# NCI-H460 lung = test system: NCI-H460 lung
# DLD-1 colon = test system: DLD-1 colon
# IGROV1 ovarian = test system: IGROV1 ovarian
# OVCAR-8 ovarian = test system: OVCAR-8 ovarian
# HCT-15 colon = test system: HCT-15 colon
# SK-MEL-5 melanoma = test system: SK-MEL-5 melanoma
# SF-268 CNS = test system: SF-268 CNS
# SNB-19 CNS = test system: SNB-19 CNS
# COLO 205 colon = test system: COLO 205 colon
# NCI-H23 lung = test system: NCI-H23 lung
# HOP-62 NSCLC = test system: HOP-62 NSCLC
# UACC-257 melanoma = test system: UACC-257 melanoma
# M19-MEL melanoma = test system: M19-MEL melanoma
# HOP-92 NSCLC = test system: HOP-92 NSCLC
# 786-0 renal = test system: 786-0 renal
# HL-60(TB) leukemia = test system: HL-60(TB) leukemia
# HT29 colon = test system: HT29 colon
# UACC-62 melanoma = test system: UACC-62 melanoma
# SW-620 colon = test system: SW-620 colon
# A498 renal = test system: A498 renal
# RPMI-8226 leukemia = test system: RPMI-8226 leukemia
# A549 NSCLC = test system: A549 NSCLC
# MALME-3M melanoma = test system: MALME-3M melanoma
# TK-10 renal = test system: TK-10 renal
# OVCAR-3 ovarian = test system: OVCAR-3 ovarian
# UO-31 renal = test system: UO-31 renal
# CAKI-1 renal = test system: CAKI-1 renal
# HCC-2998 colon = test system: HCC-2998 colon
# DMS 114 small cell lung = test system: DMS 114 small cell lung
# SNB-78 CNS = test system: SNB-78 CNS
# SK-MEL-2 melanoma = test system: SK-MEL-2 melanoma
# SK-OV-3 ovarian = test system: SK-OV-3 ovarian
# HOP-18 NSCLC = test system: HOP-18 NSCLC
smiles,measurement,setting,value
O=C([CH-]C(=O)C(F)(F)F)c1ccccc1.O=C([CH-]C(=O)C(F)(F)F)c1ccccc1.O=C([CH-]C(=O)C(F)(F)F)c1ccccc1.O=C([CH-]C(=O)C(F)(F)F)c1ccccc1.[Eu+3].c1ccncc1,GI50,DMS 273 small cell lung,8.87 µM
same,TGI,DMS 273 small cell lung,> 100 µM
same,GI50,KM12 colon,3.08 µM
same,TGI,KM12 colon,8.11 µM
same,GI50,OVCAR-5 ovarian,41 µM
same,TGI,OVCAR-5 ovarian,> 100 µM
same,GI50,SR leukemia,3.86 µM
same,TGI,SR leukemia,19.7 µM
same,GI50,U251 CNS,5.02 µM
same,TGI,U251 CNS,> 100 µM
same,GI50,RXF 393 renal,2.25 µM
same,TGI,RXF 393 renal,18.8 µM
same,GI50,OVCAR-4 ovarian,7.62 µM
same,TGI,OVCAR-4 ovarian,> 100 µM
same,GI50,SF-295 CNS,3.02 µM
same,TGI,SF-295 CNS,31 µM
same,GI50,SK-MEL-28 melanoma,14.3 µM
same,TGI,SK-MEL-28 melanoma,> 100 µM
same,GI50,M14 melanoma,9.52 µM
same,TGI,M14 melanoma,39.5 µM
same,GI50,SNB-75 CNS,6.71 µM
same,TGI,SNB-75 CNS,> 100 µM
same,GI50,LXFL 529 NSCLC,4.2 µM
same,TGI,LXFL 529 NSCLC,> 100 µM
same,GI50,MOLT-4 leukemia,4.26 µM
same,TGI,MOLT-4 leukemia,36.2 µM
same,GI50,HCT-116 colon,7.53 µM
same,TGI,HCT-116 colon,71 µM
same,GI50,K-562 leukemia,4.66 µM
same,TGI,K-562 leukemia,83 µM
same,GI50,SF-539 CNS,16 µM
same,TGI,SF-539 CNS,92.8 µM
same,GI50,KM20L2 colon,26.7 µM
same,TGI,KM20L2 colon,> 100 µM
same,GI50,LOX IMVI melanoma,5.78 µM
same,TGI,LOX IMVI melanoma,21 µM
same,GI50,EKVX NSCLC,11.4 µM
same,TGI,EKVX NSCLC,58.6 µM
same,GI50,NCI-H226 lung,15.6 µM
same,TGI,NCI-H226 lung,79 µM
same,GI50,SN12C renal,3.74 µM
same,TGI,SN12C renal,39.7 µM
same,GI50,CCRF-CEM leukemia,2.64 µM
same,TGI,CCRF-CEM leukemia,32.7 µM
same,GI50,ACHN renal,8.71 µM
same,TGI,ACHN renal,> 100 µM
same,GI50,NCI-H522 lung,2.8 µM
same,TGI,NCI-H522 lung,17.9 µM
same,GI50,NCI-H460 lung,5.62 µM
same,TGI,NCI-H460 lung,43.7 µM
same,GI50,DLD-1 colon,7.12 µM
same,TGI,DLD-1 colon,> 100 µM
same,GI50,IGROV1 ovarian,7.88 µM
same,TGI,IGROV1 ovarian,> 100 µM
same,GI50,OVCAR-8 ovarian,6.58 µM
same,TGI,OVCAR-8 ovarian,> 100 µM
same,GI50,HCT-15 colon,4.98 µM
same,TGI,HCT-15 colon,> 100 µM
same,GI50,SK-MEL-5 melanoma,11.2 µM
same,TGI,SK-MEL-5 melanoma,> 100 µM
same,GI50,SF-268 CNS,6.21 µM
same,TGI,SF-268 CNS,59.7 µM
same,GI50,SNB-19 CNS,4.33 µM
same,TGI,SNB-19 CNS,94.8 µM
same,GI50,COLO 205 colon,28.8 µM
same,TGI,COLO 205 colon,> 100 µM
same,GI50,NCI-H23 lung,3.7 µM
same,TGI,NCI-H23 lung,19.5 µM
same,GI50,HOP-62 NSCLC,8.37 µM
same,TGI,HOP-62 NSCLC,64 µM
same,GI50,UACC-257 melanoma,11.9 µM
same,TGI,UACC-257 melanoma,55.2 µM
same,GI50,M19-MEL melanoma,10 µM
same,TGI,M19-MEL melanoma,62.8 µM
same,GI50,HOP-92 NSCLC,9.02 µM
same,TGI,HOP-92 NSCLC,45.6 µM
same,GI50,786-0 renal,11.9 µM
same,TGI,786-0 renal,> 100 µM
same,GI50,HL-60(TB) leukemia,3.69 µM
same,TGI,HL-60(TB) leukemia,13.8 µM
same,GI50,HT29 colon,6.97 µM
same,TGI,HT29 colon,> 100 µM
same,GI50,UACC-62 melanoma,6.67 µM
same,TGI,UACC-62 melanoma,63.3 µM
same,GI50,SW-620 colon,11.9 µM
same,TGI,SW-620 colon,> 100 µM
same,GI50,A498 renal,18.4 µM
same,TGI,A498 renal,88.8 µM
same,GI50,RPMI-8226 leukemia,4.19 µM
same,TGI,RPMI-8226 leukemia,35.3 µM
same,GI50,A549 NSCLC,25.6 µM
same,TGI,A549 NSCLC,> 100 µM
CC1(C)C2CCC3(C2)CS(=O)(=O)N2OC231 (stereo not drawn),TGI,DMS 273 small cell lung,58.5 µM
same,TGI,KM12 colon,41.9 µM
same,TGI,OVCAR-5 ovarian,71.9 µM
same,TGI,SR leukemia,> 100 µM
same,TGI,U251 CNS,> 100 µM
same,TGI,SF-295 CNS,> 100 µM
same,TGI,SK-MEL-28 melanoma,44.7 µM
same,TGI,M14 melanoma,30 µM
same,TGI,SNB-75 CNS,36.5 µM
same,TGI,LXFL 529 NSCLC,30.6 µM
same,TGI,HCT-116 colon,> 100 µM
same,TGI,K-562 leukemia,54.6 µM
same,TGI,SF-539 CNS,33.6 µM
same,TGI,KM20L2 colon,30.6 µM
same,TGI,LOX IMVI melanoma,31.1 µM
same,TGI,MALME-3M melanoma,28.8 µM
same,TGI,EKVX NSCLC,30.3 µM
same,TGI,TK-10 renal,32.9 µM
same,TGI,SN12C renal,31.6 µM
same,TGI,CCRF-CEM leukemia,> 100 µM
same,TGI,ACHN renal,29.4 µM
same,TGI,OVCAR-3 ovarian,33.2 µM
same,TGI,NCI-H522 lung,26.9 µM
same,TGI,NCI-H460 lung,37.1 µM
same,TGI,DLD-1 colon,47.5 µM
same,TGI,IGROV1 ovarian,43.4 µM
same,TGI,UO-31 renal,31.3 µM
same,TGI,OVCAR-8 ovarian,67.2 µM
same,TGI,CAKI-1 renal,30.4 µM
same,TGI,HCT-15 colon,30.1 µM
same,TGI,SK-MEL-5 melanoma,44.8 µM
same,TGI,HCC-2998 colon,> 100 µM
same,TGI,SF-268 CNS,47.2 µM
same,TGI,SNB-19 CNS,> 100 µM
same,TGI,COLO 205 colon,32.9 µM
same,TGI,NCI-H23 lung,33.4 µM
same,TGI,DMS 114 small cell lung,26.8 µM
same,TGI,SNB-78 CNS,47.2 µM
same,TGI,HOP-62 NSCLC,> 100 µM
same,TGI,SK-MEL-2 melanoma,39.3 µM
same,TGI,UACC-257 melanoma,33.1 µM
same,TGI,SK-OV-3 ovarian,> 100 µM
same,TGI,M19-MEL melanoma,29.8 µM
same,TGI,HOP-92 NSCLC,25.2 µM
same,TGI,786-0 renal,31.2 µM
same,TGI,HL-60(TB) leukemia,43.3 µM
same,TGI,HT29 colon,31.8 µM
same,TGI,UACC-62 melanoma,31.8 µM
same,TGI,SW-620 colon,32.9 µM
same,TGI,A498 renal,44.5 µM
same,TGI,RPMI-8226 leukemia,> 100 µM
same,TGI,A549 NSCLC,> 100 µM
same,TGI,HOP-18 NSCLC,32.1 µM
C[N+]1(C)C/C(=C\c2ccncc2)C(=O)/C(=C/c2ccncc2)C1,TGI,DMS 273 small cell lung,> 100 µM
same,TGI,KM12 colon,> 100 µM
same,TGI,OVCAR-5 ovarian,> 100 µM
same,TGI,SR leukemia,> 100 µM
same,TGI,U251 CNS,> 100 µM
same,TGI,RXF 393 renal,> 100 µM
same,TGI,OVCAR-4 ovarian,> 100 µM
same,TGI,SF-295 CNS,> 100 µM
same,TGI,SK-MEL-28 melanoma,> 100 µM
same,TGI,M14 melanoma,> 100 µM
same,TGI,SNB-75 CNS,> 100 µM
same,TGI,LXFL 529 NSCLC,> 100 µM
same,TGI,MOLT-4 leukemia,> 100 µM
same,TGI,HCT-116 colon,> 100 µM
same,TGI,SF-539 CNS,> 100 µM
same,TGI,KM20L2 colon,> 100 µM
same,TGI,LOX IMVI melanoma,> 100 µM
same,TGI,MALME-3M melanoma,> 100 µM
same,TGI,EKVX NSCLC,> 100 µM
same,TGI,TK-10 renal,> 100 µM
same,TGI,SN12C renal,> 100 µM
same,TGI,CCRF-CEM leukemia,> 100 µM
same,TGI,ACHN renal,> 100 µM
same,TGI,OVCAR-3 ovarian,> 100 µM
same,TGI,NCI-H522 lung,42 µM
same,TGI,NCI-H460 lung,> 100 µM
same,TGI,DLD-1 colon,> 100 µM
same,TGI,IGROV1 ovarian,> 100 µM
same,TGI,UO-31 renal,> 100 µM
same,TGI,OVCAR-8 ovarian,> 100 µM
same,TGI,CAKI-1 renal,> 100 µM
same,TGI,HCT-15 colon,> 100 µM
same,TGI,SK-MEL-5 melanoma,> 100 µM
same,TGI,HCC-2998 colon,> 100 µM
same,TGI,SF-268 CNS,84.7 µM
same,TGI,SNB-19 CNS,> 100 µM
same,TGI,COLO 205 colon,> 100 µM
same,TGI,DMS 114 small cell lung,> 100 µM
same,TGI,SNB-78 CNS,> 100 µM
same,TGI,HOP-62 NSCLC,> 100 µM
same,TGI,UACC-257 melanoma,> 100 µM
same,TGI,SK-OV-3 ovarian,> 100 µM
same,TGI,M19-MEL melanoma,> 100 µM
same,TGI,HOP-92 NSCLC,> 100 µM
same,TGI,786-0 renal,> 100 µM
same,TGI,HL-60(TB) leukemia,79.5 µM
same,TGI,HT29 colon,> 100 µM
same,TGI,UACC-62 melanoma,> 100 µM
same,TGI,SW-620 colon,> 100 µM
same,TGI,A498 renal,> 100 µM
same,TGI,RPMI-8226 leukemia,> 100 µM
same,TGI,A549 NSCLC,> 100 µM
same,TGI,HOP-18 NSCLC,> 100 µM
